# Tests used:
# Conditions in all cases: 72 h
# [1] = tested on: myeloid leukemia patient primary cells Pat.10; experiment: cell viability (% survival relative to DMSO control); higher = less cytotoxic
# Procedure, shortened: (§1)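 Seventy compounds were pre-printed on 384-well plates at five tenfold concentrations between 1 and 10,000 nM, in duplicate. Thawed mononuclear cells purified by Ficoll from AML or CML patients were added at 10,000 cells/well in RPMI 1640 with 10% FBS for 72 h. Viability by CellTiter-Glo was normalised to DMSO and 10 μM proteasome-inhibitor wells. Where stated, area under the curve was taken from log-logistic fits made with the drc and PharmacoGx R packages, each fit having four parameters.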
# [2] = tested on: myeloid leukemia patient primary cells Pat.11; experiment: as above
# Procedure, shortened: as §1
# [3] = tested on: myeloid leukemia patient primary cells Pat.12; experiment: as above
# Procedure, shortened: as §1
# [4] = tested on: myeloid leukemia patient primary cells Pat.13; experiment: as above
# Procedure, shortened: as §1
# [5] = tested on: myeloid leukemia patient primary cells Pat.14; experiment: as above
# Procedure, shortened: as §1
# [6] = tested on: myeloid leukemia patient primary cells Pat.15; experiment: as above
# Procedure, shortened: as §1
# [7] = tested on: myeloid leukemia patient primary cells Pat.1; experiment: as above
# Procedure, shortened: as §1
# [8] = tested on: myeloid leukemia patient primary cells Pat.2; experiment: as above
# Procedure, shortened: as §1
# [9] = tested on: myeloid leukemia patient primary cells Pat.3; experiment: as above
# Procedure, shortened: as §1
# [10] = tested on: myeloid leukemia patient primary cells Pat.4; experiment: as above
# Procedure, shortened: as §1
# [11] = tested on: myeloid leukemia patient primary cells Pat.5; experiment: as above
# Procedure, shortened: as §1
# [12] = tested on: myeloid leukemia patient primary cells Pat.6; experiment: as above
# Procedure, shortened: as §1
# [13] = tested on: myeloid leukemia patient primary cells Pat.7; experiment: as above
# Procedure, shortened: as §1
# [14] = tested on: myeloid leukemia patient primary cells Pat.8; experiment: as above
# Procedure, shortened: as §1
# [15] = tested on: myeloid leukemia patient primary cells Pat.9; experiment: as above
# Procedure, shortened: as §1
# KU-812 = experiment: cell viability (% survival relative to DMSO control, bortezomib = 0%); higher = less cytotoxic
# Procedure, shortened: (§2)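 After 72 h at 37 °C with 5% CO2, cell viability in 384-well plates was measured by CellTiter-Glo luminescence. The plates held compounds pre-printed at 1, 10, 100, 1000 or 10000 nM in duplicate, and cells from 10 AML and 5 CML lines seeded at densities titrated to linear growth. Percent survival is the duplicate mean, normalised to vehicle as 100% and a 10 µM positive control as 0%.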
# MOLM-13 = experiment: as above
# Procedure, shortened: as §2
# NOMO-1 = experiment: as above
# Procedure, shortened: as §2
# THP-1 = experiment: as above
# Procedure, shortened: as §2
compound,measurement,setting,value
CCC(CC#N)OC(=O)N[C@@H](C)c1cccc(NC(=O)Nc2ccc(-c3cnco3)c(OC)c2)c1 (stereo in doubt) [AVN-944],cell viability,[1]; 1 nM,> 100%
same,cell viability,[1]; 10 nM,66.9%
same,cell viability,[1]; 100 nM,41.6%
same,cell viability,[1]; 1000 nM,58.3%
same,cell viability,[1]; 10000 nM,4.94%
same,cell viability,[2]; 1 nM,> 100%
same,cell viability,[2]; 10 nM,99.4%
same,cell viability,[2]; 100 nM,90.8%
same,cell viability,[2]; 1000 nM,86.2%
same,cell viability,[2]; 10000 nM,60.6%
same,cell viability,[3]; 1 nM,98.7%
same,cell viability,[3]; 10 nM,> 100%
same,cell viability,[3]; 100 nM,87.7%
same,cell viability,[3]; 1000 nM,> 100%
same,cell viability,[3]; 10000 nM,92.9%
same,cell viability,[4]; 1 nM,91.5%
same,cell viability,[4]; 10 nM,93.1%
same,cell viability,[4]; 100 nM,90.6%
same,cell viability,[4]; 1000 nM,63.4%
same,cell viability,[4]; 10000 nM,36.5%
same,cell viability,[5]; 1 nM,88.2%
same,cell viability,[5]; 10 nM,97.5%
same,cell viability,[5]; 100 nM,84.9%
same,cell viability,[5]; 1000 nM,63.5%
same,cell viability,[5]; 10000 nM,34.3%
same,cell viability,[6]; 1 nM,94.9%
same,cell viability,[6]; 10 nM,> 100%
same,cell viability,[6]; 100 nM,83.3%
same,cell viability,[6]; 1000 nM,89.7%
same,cell viability,[6]; 10000 nM,71.1%
same,cell viability,[7]; 1 nM,90.9%
same,cell viability,[7]; 10 nM,85.7%
same,cell viability,[7]; 100 nM,87.2%
same,cell viability,[7]; 1000 nM,82.4%
same,cell viability,[7]; 10000 nM,65.8%
same,cell viability,[8]; 1 nM,> 100%
same,cell viability,[8]; 10 nM,98.9%
same,cell viability,[8]; 100 nM,81.5%
same,cell viability,[8]; 1000 nM,81.8%
same,cell viability,[8]; 10000 nM,83.1%
same,cell viability,[9]; 1 nM,> 100%
same,cell viability,[9]; 10 nM,80.4%
same,cell viability,[9]; 100 nM,51.2%
same,cell viability,[9]; 1000 nM,29.3%
same,cell viability,[9]; 10000 nM,20%
same,cell viability,[10]; 1 nM,86%
same,cell viability,[10]; 10 nM,90.7%
same,cell viability,[10]; 100 nM,92.9%
same,cell viability,[10]; 1000 nM,63%
same,cell viability,[10]; 10000 nM,33.4%
same,cell viability,[11]; 1 nM,56.9%
same,cell viability,[11]; 10 nM,45.4%
same,cell viability,[11]; 100 nM,40.4%
same,cell viability,[11]; 1000 nM,9.12%
same,cell viability,[11]; 10000 nM,5.69%
same,cell viability,[12]; 1 nM,97.1%
same,cell viability,[12]; 10 nM,90.8%
same,cell viability,[12]; 100 nM,92.9%
same,cell viability,[12]; 1000 nM,87.4%
same,cell viability,[12]; 10000 nM,64%
same,cell viability,[13]; 1 nM,98.1%
same,cell viability,[13]; 10 nM,91.5%
same,cell viability,[13]; 100 nM,25.3%
same,cell viability,[13]; 1000 nM,17.6%
same,cell viability,[13]; 10000 nM,< 0%
same,cell viability,[14]; 1 nM,82.5%
same,cell viability,[14]; 10 nM,92.3%
same,cell viability,[14]; 100 nM,86.4%
same,cell viability,[14]; 1000 nM,68.7%
same,cell viability,[14]; 10000 nM,58.1%
same,cell viability,[15]; 1 nM,74.9%
same,cell viability,[15]; 10 nM,72.1%
same,cell viability,[15]; 100 nM,50%
same,cell viability,[15]; 1000 nM,15.9%
same,cell viability,[15]; 10000 nM,1.99%
same,cell viability,KU-812; 1 nM,93.6%
same,cell viability,KU-812; 10 nM,106%
same,cell viability,KU-812; 100 nM,50.2%
same,cell viability,KU-812; 1000 nM,9.58%
same,cell viability,KU-812; 10000 nM,3.66%
same,cell viability,MOLM-13; 1 nM,130%
same,cell viability,MOLM-13; 10 nM,121%
same,cell viability,MOLM-13; 100 nM,8.35%
same,cell viability,MOLM-13; 1000 nM,1.17%
same,cell viability,MOLM-13; 10000 nM,0.252%
same,cell viability,NOMO-1; 1 nM,99.9%
same,cell viability,NOMO-1; 10 nM,101%
same,cell viability,NOMO-1; 100 nM,86.5%
same,cell viability,NOMO-1; 1000 nM,34%
same,cell viability,NOMO-1; 10000 nM,10.4%
same,cell viability,THP-1; 1 nM,101%
same,cell viability,THP-1; 10 nM,99.7%
same,cell viability,THP-1; 100 nM,101%
same,cell viability,THP-1; 1000 nM,65.3%
same,cell viability,THP-1; 10000 nM,43.1%

# Reference: the supplement of paper PMC8671470
